The record followed here is US7045528B2, “Benzofused heterozryl amide derivatives of thienopyridines useful as therapeutic agents, pharmaceutical compositions including the same, and methods for their use” (Agouron Pharmaceuticals, Inc., priority 2002, dated 2006).

Usually Ki stands for a measure of affinity in units of concentration, obtained from inhibition or displacement. A higher Ki goes with a looser hold on the target. Broadly, the IC50 is the concentration that gives 50% inhibition.

Assay [1] deals with T1, unphosphorylated VEGF-R2Δ50 (FLVK) (Homo sapiens, UniProt P35968, DEL940-989/E990V).
T1 construct: VEGF-R2Δ50 contains residues 806–939 and 990–1171; made in house; host or cells: baculovirus/insect cell system
Put plainly: VEGF-R2 coupled spectrophotometric assay, unphosphorylated VEGF-R2Δ50 (FLVK). The settings on record: unphosphorylated VEGF-R2Δ50; for inhibition at 0.05 µM: 50 nM compound, read-out: FLVK (% inh @ 50 nM). In kind it is biochemical. The source says: VEGF-R2 Construct for Assay:
This construct determines the ability of a test compound to inhibit tyrosine kinase activity. A construct (VEGF-R2Δ50) of the cytosolic domain of human vascular endothelial growth factor receptor 2 (VEGF-R2) lacking the 50 central residues of the 68 residues of the kinase insert domain was expressed in a baculovirus/insect cell system. Of the 1356 residues of full-length VEGF-R2, VEGF-R2Δ50 contains residues 806–939 and 990–1171, and also one point mutation (E990V) within the kinase insert domain relative to wild-type VEGF-R2. Autophosphorylation of the purified construct was performed by incubation of the enzyme at a concentration of 4 μM in the presence of 3 mM ATP and 40 mM MgCl2 in 100 mM HEPES, pH 7.5, containing 5% glycerol and 5 mM DTT, at 4° C. for 2 h. […] See Parast et al., Biochemistry, 37, 16788–16801 (1998).
Coupled Spectrophotometric (FLVK-P) Assay
The production of ADP from ATP that accompanies phosphoryl transfer was coupled to oxidation of NADH using phosphoenolpyruvate (PEP) and a system having pyruvate kinase (PK) and lactic dehydrogenase (LDH). The oxidation of NADH was monitored by following the decrease of absorbance at 340 nm (e340=6.22 cm^−1 mM^−1) using a Beckman DU 650 spectrophotometer. Assay conditions for phosphorylated VEGF-R2Δ50 (indicated as FLVK-P in the tables below) were the following: 1 mM PEP; 250 μM NADH; 50 units of LDH/mL; 20 units of PK/mL; 5 mM DTT; 5.1 mM poly(E4Y1); 1 mM ATP; and 25 mM MgCl2 in 200 mM HEPES, pH 7.5. Assay conditions for unphosphorylated VEGF-R2Δ50 (indicated as FLVK in the tables) were the following: 1 mM PEP; 250 μM NADH; 50 units of LDH/mL; 20 units of PK/mL; 5 mM DTT; 20 mM poly(E4Y1); 3 mM ATP; and 60 mM MgCl2 and 2 mM MnCl2 in 200 mM HEPES, pH 7.5. Assays were initiated with 5 to 40 nM of enzyme. Ki values were determined by measuring enzyme activity in the presence of varying concentrations of test compounds. […] The binding inhibitions were fitted to equation as described by Morrison. The data were analyzed using Enzyme Kinetic and Kaleidagraph software.

The test system of assay [2] is human umbilical vein endothelial cells (HUVEC). Briefly: HUVEC+VEGF proliferation assay. In kind it is cell-based. The settings on record: Homo sapiens, HUVEC; VEGF 6 ng/mL, 72 h, MTT. As to the method: HUVEC+VEGF Proliferation Assay
This assay determines the ability of a test compound to inhibit the growth factor-stimulated proliferation of human umbilical vein endothelial cells (“HUVEC”). HUVEC cells (passage 3–4; Clonetics, Corp.) were thawed into EGM2 culture medium (Clonetics Corp) in T75 flasks. Fresh EGM2 medium was added to the flasks 24 hours later. Four or five days later, cells were exposed to another culture medium (F12K medium supplemented with 10% fetal bovine serum (FBS), 60 μg/mL endothelial cell growth supplement (ECGS), and 0.1 mg/mL heparin). Exponentially-growing HUVEC cells were used in experiments thereafter. Ten to twelve thousand HUVEC cells were plated in 96-well dishes in 100 μl of rich, culture medium (described above). The cells were allowed to attach for 24 hours in this medium. The medium was then removed by aspiration and 105 μl of starvation media (F12K+1% FBS) was added to each well. After 24 hours, 15 μl of test agent dissolved in 1% DMSO in starvation medium or this vehicle alone was added into each treatment well; the final DMSO concentration was 0.1%. One hour later, 30 μl of VEGF (30 ng/mL) in starvation media was added to all wells except those containing untreated controls; the final VEGF concentration was 6 ng/mL. Cellular proliferation was quantified 72 hours later by MTT dye reduction, at which time cells were exposed for 4 hours MTT (Promega Corp.). Dye reduction was stopped by addition of a stop solution (Promega Corp.) and absorbance at 595 nm was determined on a 96-well spectrophotometer plate reader.

Assay [3] concerns the target T2, PDGFRβ (Homo sapiens, UniProt P09619).
T2 construct: expressed in transfected cells; host or cells: porcine aorta endothelial (PAE)-PDGFRβ cells
Briefly: PAE-PDGFRβ phosphorylation in PAE-PDGFRB cells assay. The following applies: PAE cells overexpressing human PDGFRβ, PDGF-BB stimulated; read-out: PAE PDGFR autophos IC50 (nM) AVG. In kind it is cell-based. As to the method: PAE-PDGFRβ Phosphorylation in PAE-PDGFRB Cells Assay
This assay determines the ability of a test compound to inhibit the autophosphorylation of PDGFRβ in porcine aorta endothelial (PAE)-PDGFRβ cells. PAE cells that overexpress human PDGFRβ were used in this assay. The cells were cultured in Ham's F12 media supplemented with 10% fetal bovine serum (FBS) and 400 ug/ml G418. Twenty thousands cells were seeded in each well of a 96-well plate in 50 μL of growth media and allowed to attach for 6 hours at 37° C. Cells were then exposed to the starvation media (Ham's F12 media supplemented with 0.1% FBS) for 16 hours. After the starvation period was over, 10 μL of test agent in 5% DMSO in starvation media were added to the test wells and 10 μL of the vehicle (5% DMSO in starvation media) were added into the control wells. The final DMSO concentration in each well was 0.5%. Plates were incubated at 37° C. for 1 hour and the cells were then stimulated with 1 μg/mL PDGF-BB (R & D System) in the presence of 2 mM Na3VO4 for 8 minutes. The cells were washed once with 1 mm Na3VO4 in HBSS and lysed by adding 50 μL per well of lysis buffer. One hundred μL of dilution buffer were then added to each well and the diluted cell lysate was transferred to a 96-well goat ant-rabbit coated plate (Pierce), which was pre-coated with Rabbit anti Human PDGFRβ antibody (Santa Cruz). The plates were incubated at room temperature for 2 hours and washed seven times with 1% Tween 20 in PBS. HRP-PY20 (Santa Cruz) was diluted and added to the plate for a 30-minute incubation. Plates were then washed again and TMB peroxidase substrate (Kirkegaard & Perry) was added for a 10-minute incubation. One hundred μL of 0.09 N H2SO4 was added into each well of the 96-well plate to stop the reaction. Phosphorylation status was assessed by spectrophotometer reading at 450 nm. IC50 values were calculated by curve fitting using a four-parameter analysis.

T2 sequence (P09619 33-1106): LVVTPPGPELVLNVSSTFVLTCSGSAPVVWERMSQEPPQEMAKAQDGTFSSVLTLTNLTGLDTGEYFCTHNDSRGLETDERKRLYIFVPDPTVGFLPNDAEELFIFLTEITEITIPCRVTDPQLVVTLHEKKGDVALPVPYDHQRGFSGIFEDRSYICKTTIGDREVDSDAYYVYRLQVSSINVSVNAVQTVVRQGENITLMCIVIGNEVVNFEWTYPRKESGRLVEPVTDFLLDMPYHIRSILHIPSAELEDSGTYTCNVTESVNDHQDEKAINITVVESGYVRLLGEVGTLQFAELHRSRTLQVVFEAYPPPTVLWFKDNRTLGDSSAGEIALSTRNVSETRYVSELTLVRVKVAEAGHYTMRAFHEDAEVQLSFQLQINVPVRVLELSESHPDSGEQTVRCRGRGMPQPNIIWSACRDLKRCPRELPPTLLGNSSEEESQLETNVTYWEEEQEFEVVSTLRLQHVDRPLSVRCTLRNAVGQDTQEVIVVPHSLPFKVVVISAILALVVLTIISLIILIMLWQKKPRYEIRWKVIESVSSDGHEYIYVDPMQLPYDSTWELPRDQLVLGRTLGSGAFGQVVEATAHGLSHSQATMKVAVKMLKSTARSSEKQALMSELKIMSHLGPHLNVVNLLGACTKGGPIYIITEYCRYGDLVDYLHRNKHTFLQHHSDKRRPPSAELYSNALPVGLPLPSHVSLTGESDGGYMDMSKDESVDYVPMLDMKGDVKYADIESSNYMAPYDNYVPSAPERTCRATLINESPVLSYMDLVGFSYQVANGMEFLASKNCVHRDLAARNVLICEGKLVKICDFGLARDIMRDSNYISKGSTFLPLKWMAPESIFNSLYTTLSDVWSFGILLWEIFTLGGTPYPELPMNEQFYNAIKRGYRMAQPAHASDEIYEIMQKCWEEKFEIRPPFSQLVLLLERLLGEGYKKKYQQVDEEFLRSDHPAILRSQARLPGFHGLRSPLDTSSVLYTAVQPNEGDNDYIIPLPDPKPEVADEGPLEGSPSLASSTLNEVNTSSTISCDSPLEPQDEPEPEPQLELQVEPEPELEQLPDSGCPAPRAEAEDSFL
T1 sequence (P35968 with tags, fused parts or gaps DEL940-989/E990V limits assumed): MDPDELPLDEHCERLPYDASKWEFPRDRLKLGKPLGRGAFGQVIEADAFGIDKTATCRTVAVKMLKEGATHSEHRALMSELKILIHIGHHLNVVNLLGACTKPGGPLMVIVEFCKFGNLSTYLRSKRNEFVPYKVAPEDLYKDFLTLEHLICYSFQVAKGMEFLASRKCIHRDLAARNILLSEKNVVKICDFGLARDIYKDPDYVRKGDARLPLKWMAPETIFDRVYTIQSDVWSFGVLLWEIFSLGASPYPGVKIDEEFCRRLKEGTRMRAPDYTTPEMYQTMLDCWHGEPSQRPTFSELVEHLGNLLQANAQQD

Regarding `CNC(=O)c1c(C)n(C)c2cc(Oc3ccnc4cc(C(=O)N5C[C@@H](O)[C@@H](O)C5)sc34)ccc12` [Example 37, 6-[2-(3,4-Dihydroxy-pyrrolidine-1-carbonyl)-thieno[3,2-b]pyridin-7-yloxy]-1,2-dimethyl-1H-indole-3-carboxylic acid methylamide], in assay [1], the inhibition at 0.05 µM came to 66% and the Ki amounted to 4.3 nM. Also, the IC50 in assay [2] was determined as 10 nM.

`CNC(=O)c1c(C)n(C)c2cc(Oc3ccnc4cc(-c5cncnc5)sc34)ccc12` [Example 39, 1,2-Dimethyl-6-(2-pyrimidin-5-yl-thieno[3,2-b]pyridin-7-yloxy)-1H-indole-3-carboxylic acid methylamide]: in assay [1], the inhibition at 0.05 µM came out at 12% and the Ki is 47 nM. In assay [2], the IC50 is 8.7 nM. In addition, in assay [3], the IC50 amounted to 61 nM.

As for `CNC(=O)c1c(C)n(C)c2cc(Oc3ccnc4cc(-c5ccccn5)sc34)ccc12` [Example 42, 1,2-Dimethyl-6-(2-pyridin-2-yl-thieno[3,2-b]pyridin-7-yloxy)-1H-indole-3-carboxylic acid methylamide], in assay [1], the inhibition at 0.05 µM was 76% and the Ki was found to be 2.8 nM. Moreover, the IC50 in assay [2] was 4.34 nM. In assay [3], the IC50 was 8.9 nM.

For the compound `CNC(=O)c1csc(-c2cc3nccc(Oc4ccc5c(C(=O)NC)c(C)n(C)c5c4)c3s2)n1` [Example 43, 1,2-Dimethyl-6-[2-(4-methylcarbamoyl-thiazol-2-yl)-thieno[3,2-b]pyridin-7-yloxy]-1H-indole-3-carboxylic acid methylamide], in assay [1], the inhibition at 0.05 µM amounted to 67% and the Ki came out at 3.21 nM. The IC50 in assay [2] worked out at 10 nM.

Turning to `CNC(=O)c1c(C)n(C)c2cc(Oc3ccnc4cc(C(=O)N5CCC(CN)C5)sc34)ccc12` (centres unmarked) [Example 45, 6-[2-(3-Aminomethyl-pyrrolidine-1-carbonyl)-thieno[3,2-b]pyridin-7-yloxy]-1,2-dimethyl-1H-indole-3-carboxylic acid methylamide], in assay [1], the inhibition at 0.05 µM stood at 64% and the Ki was 4.65 nM. The IC50 in assay [2] is 10 nM. Further, the IC50 in assay [3] was 26.9 nM.

As to `CNCC1CCN(C(=O)c2cc3nccc(Oc4ccc5c(C(=O)NC)c(C)n(C)c5c4)c3s2)C1` (centres unmarked) [Example 46, 1,2-Dimethyl-6-[2-(3-methylaminomethyl-pyrrolidine-1-carbonyl)-thieno[3,2-b]pyridin-7-yloxy]-1H-indole-3-carboxylic acid methylamide], in assay [1], the inhibition at 0.05 µM came out at 68% and the affinity corresponds to a Ki of 6.49 nM. Besides, the IC50 in assay [2] was found to be 3.13 nM.

As for `CNC(=O)c1c(C)n(C)c2cc(Oc3ccnc4cc(-c5cccc(OC)n5)sc34)ccc12` [Example 49, 6-[2-(6-Methoxy-pyridin-2-yl)-thieno[3,2-b]pyridin-7-yloxy]-1,2-dimethyl-1H-indole-3-carboxylic acid methylamide], in assay [1], the inhibition at 0.05 µM is 67% and the Ki turned out to be 16 nM. Also, in assay [2], the IC50 came out at 7 nM.

`CCC(=O)c1cc2nccc(Oc3ccc4c(C(=O)NC)c(C)n(C)c4c3)c2s1` [Example 51, 1,2-Dimethyl-6-(2-propionyl-thieno[3,2-b]pyridin-7-yloxy)-1H-indole-3-carboxylic acid methylamide]: in assay [1], the inhibition at 0.05 µM stood at 34% and the affinity, expressed as Ki, was 27.7 nM. The IC50 in assay [2] was 82 nM.

For `Cc1c(C(=O)NCC2CC2)c2ccc(Oc3ccnc4cc(-c5nccn5C)sc34)cc2n1C` [Example 55, N-(Cyclopropylmethyl)-1,2-dimethyl-6-{[2-(1-methyl-1H-imidazol-2-yl)thieno[3,2-b]pyridin-7-yl]oxy}-1H-indole-3-carboxamide], the inhibition at 0.05 µM in assay [1] amounted to 62%. Besides, the affinity in assay [1], expressed as Ki, was 4.86 nM. Besides, the IC50 in assay [2] amounted to 5.8 nM; in assay [3], 31 nM.

For `Cc1c(C(=O)NC(C)C)c2ccc(Oc3ccnc4cc(-c5nccs5)sc34)cc2n1C` [Example 66, 1,2-Dimethyl-6-(2-thiazol-2-yl-thieno[3,2-b]pyridin-7-yloxy)-1H-indole-3-carboxylic acid isopropylamide], in assay [1], the inhibition at 0.05 µM was 75% and the Ki is 5.2 nM. In addition, the IC50 in assay [2] turned out to be 5.8 nM. The IC50 in assay [3] came out at 90.7 nM.

`Cc1oc2cc(Oc3ccnc4cc(C(=O)N5CCC[C@H]5CO)sc34)ccc2c1C(=O)NCC(C)C` [Example 86, 2-Methyl-6-[2-(2-hydroxymethyl-pyrrolidine-1-carbonyl)-thieno[3,2-b]pyridin-7-yloxy]-benzofuran-3-carboxylic acid isobutyl amide]: in assay [1], the inhibition at 0.05 µM was 81%. In addition, in assay [1], the Ki amounted to 1.44 nM. The IC50 in assay [2] stood at 3.07 nM; in assay [3], 17.9 nM.

In the case of `CCc1oc2cc(Oc3ccnc4cc(C(=O)N5CCC5)sc34)ccc2c1C(=O)NC` [Example 98, 6-[2-(Azetidine-1-carbonyl)-thieno[3,2-b]pyridin-7-yloxy]-2-ethyl-benzofuran-3-carboxylic acid methylamide], in assay [1], the inhibition at 0.05 µM turned out to be 86% and the affinity, expressed as Ki, was 0.38 nM. In addition, in assay [2], the IC50 came to 9.4 nM. Moreover, in assay [3], the IC50 was 127 nM.

As for `CO[C@@H]1CCN(C(=O)c2cc3nccc(Oc4ccc5c(C(=O)NCCO)c(C)sc5c4)c3s2)C1` [Example 123, 6-[(2-{[(3R)-3-Methoxypyrrolidin-1-yl]carbonyl}thieno[3,2-b]pyridin-7-yl)oxy]-2-methylbenzo[b]thiophene-3-carboxylic acid 2-hydroxyethylamide], in assay [1], the inhibition at 0.05 µM was found to be 74% and the affinity, expressed as Ki, was 2.63 nM. Also, the IC50 in assay [2] amounted to 10 nM. Further, in assay [3], the IC50 amounted to 229 nM.
